The record followed here is US20160194299A1 (priority 2013, published 2016).

Structures are written as SMILES. ≈ marks a conversion by molar mass, not a printed value. Read-outs that look alike come from different tables or passages of the source.

Series [1] deals with Mtb. Put plainly: microbe, parasite or virus in culture. It counts as cell-based, Mycobacterium tuberculosis. As to conditions: Mycobacterium tuberculosis, read-out: MIC (I).
Series [2] concerns Mtb. Put plainly: microbe, parasite or virus in culture. It counts as cell-based, Mycobacterium tuberculosis. As to conditions: Mycobacterium tuberculosis, read-out: MIC (III).
A short description of another series: in vitro. Conditions: African green monkey.

As to `CCOC(=O)NC(=O)c1ccsc1NC(=O)c1ccnc(NC(=O)N2CCS(=O)(=O)CC2)c1` [Compound 47], the values for the MIC in the series on Mtb [1] and in the series with Mtb [2] were under 1 µg/mL and over 25 µg/mL, respectively. Also, the CC50 in “in vitro” was over 50 µg/mL.
The corresponding values for `COC(=O)NC(=O)c1ccsc1NC(=O)c1cn2ccccc2n1` [Compound 347] are over 3 µg/mL, over 25 µg/mL and 25 to 50 µg/mL (≈ 72.6 to 145 µM).
For `O=C(Nc1sccc1C(=O)NC(=O)N1CCOCC1)c1nc2cnccc2s1` [Compound 386] the same measures were over 3 µg/mL, over 25 µg/mL and under 25 µg/mL.
The corresponding values for `CCOC(=O)NC(=O)c1ccsc1NC(=O)/C=C/c1nc2ccccc2s1` [Compound 365] are under 1 µg/mL, over 25 µg/mL and under 25 µg/mL.
Consider `CCOC(=O)NC(=O)c1ccsc1NC(=O)c1cc2ccccc2s1` [Compound 90], for which the results for the MIC in the series on Mtb [1] and in the series with Mtb [2] were under 1 µg/mL and under 5 µg/mL, respectively. The compound also registered a CC50 in the series “in vitro” of 25 to 50 µg/mL (≈ 66.8 to 134 µM).
The corresponding values for `CCOC(=O)NC(=O)c1ccsc1NC(=O)c1cncn1C` [Compound 263] are over 3 µg/mL, over 25 µg/mL and over 50 µg/mL.
`O=C(Nc1sccc1C(=O)N1CCN(c2ccccc2)CC1)c1nc2ccccc2s1` [Compound 258]: the MIC with Mtb [1] was over 3 µg/mL; in the series on Mtb [2], over 25 µg/mL. The CC50 in the series “in vitro” was over 50 µg/mL.
For `CCOC(=O)NC(=O)c1ccsc1NC(=O)C1=Cc2cccc(OC)c2OC1` [Compound 66] the same measures were under 1 µg/mL, under 5 µg/mL and over 50 µg/mL.
The corresponding values for `O=C(NC(=O)c1ccsc1NC(=O)c1cn2ccccc2n1)OC1CCCCC1` [Compound 381] are over 3 µg/mL, over 25 µg/mL and under 25 µg/mL.
The corresponding values for `CC(C)OC(=O)NC(=O)c1cc(F)sc1NC(=O)c1cc2ncccn2n1` [Compound 345] are under 1 µg/mL, over 25 µg/mL and 25 to 50 µg/mL (≈ 63.9 to 128 µM).
Take `CCOC(=O)NC(=O)c1ccsc1NC(=O)c1nc2c(N3CCN(C)CC3)ccnc2s1` [Compound 269]: the results for the MIC with Mtb [1] and in the series with Mtb [2] were under 1 µg/mL and 5 to 25 µg/mL (≈ 10.5 to 52.7 µM), respectively. In “in vitro”, this compound had a CC50 of over 50 µg/mL.
Turning to `O=C(NC(=O)c1ccsc1NC(=O)c1nc2ccccc2s1)OCc1ccc(F)cc1` [Compound 274], the MIC in the series on Mtb [1] is 1 to 3 µg/mL (≈ 2.2 to 6.59 µM); in the series with Mtb [2] it was over 25 µg/mL. This compound displayed a CC50 in “in vitro” of under 25 µg/mL.
The corresponding values for `CCOC(=O)NC(=O)c1cc(F)sc1NC(=O)c1ccc2nccn2n1` [Compound 387] are 1 to 3 µg/mL (≈ 2.65 to 7.95 µM), over 25 µg/mL and under 25 µg/mL.
For `CC(C)OC(=O)NC(=O)c1ccsc1NC(=O)c1cnc2ccsc2c1` [Compound 395] the same measures were under 1 µg/mL, over 25 µg/mL and under 25 µg/mL.
For `CCOC(=O)NC(=O)c1ccsc1NC(=O)c1cnc(O)cn1` [Compound 129] the same measures were over 3 µg/mL, over 25 µg/mL and over 50 µg/mL.
On to `CCOC(=O)NC(=O)c1ccsc1NC(=O)c1ccc2scnc2c1` [Compound 43], for which the MIC is under 1 µg/mL in the series on Mtb [1] and 5 to 25 µg/mL (≈ 13.3 to 66.6 µM) with Mtb [2]. In addition, in the series “in vitro”, the CC50 is over 50 µg/mL.
Take `CCOC(=O)NC(=O)c1ccsc1NC(=O)C1COc2ccccc2O1` (stereo not drawn) [Compound 92]: the values for the MIC in the series on Mtb [1] and in the series on Mtb [2] were over 3 µg/mL and 5 to 25 µg/mL (≈ 13.3 to 66.4 µM), respectively. The compound further came in with a CC50 in the series “in vitro” of 25 to 50 µg/mL (≈ 66.4 to 133 µM).
For `CCOC(=O)NC(=O)c1c(C)csc1NC(=O)c1ccc2scnc2c1` [Compound 146] the same measures were over 3 µg/mL, over 25 µg/mL and over 50 µg/mL.
For `CCOC(=O)NC(=O)c1ccsc1NC(=O)c1cn2cccc(C#N)c2n1` [Compound 124] the same measures were over 3 µg/mL, under 5 µg/mL and over 50 µg/mL.
The corresponding values for `CCOC(=O)NC(=O)c1ccsc1NC(=O)c1cc2ccccc2cn1` [Compound 116] are over 3 µg/mL, over 25 µg/mL and over 50 µg/mL.
For `CCOC(=O)NC(=O)c1ccsc1NC(=O)c1sc2ccccc2c1Cl` [Compound 88], the MIC in the series on Mtb [1] was under 1 µg/mL; in the series with Mtb [2] it was 5 to 25 µg/mL (≈ 12.2 to 61.1 µM). Moreover, the CC50 in “in vitro” is over 50 µg/mL.
For `CC(=O)N1CCC(OC(=O)NC(=O)c2ccsc2NC(=O)c2nc3cnccc3s2)CC1` [Compound 367] the same measures were over 3 µg/mL, over 25 µg/mL and 25 to 50 µg/mL (≈ 52.8 to 106 µM).
For `C=CCOC(=O)NC(=O)c1ccsc1NC(=O)c1nc2cnccc2s1` [Compound 99] the same measures were under 1 µg/mL, under 5 µg/mL and 25 to 50 µg/mL (≈ 64.4 to 129 µM).
The corresponding values for `CCC(OC(=O)NC(=O)c1ccsc1NC(=O)c1cnc2ccnn2c1)c1ccccc1` (stereo not drawn) [Compound 306] are over 3 µg/mL, over 25 µg/mL and under 25 µg/mL.
As to `COC(=O)NC(=O)c1ccsc1NC(=O)c1cnc2ccnn2c1` [Compound 313], the MIC in the series with Mtb [1] was over 3 µg/mL; in the series on Mtb [2], over 25 µg/mL. In addition, the CC50 in “in vitro” was in the range of 25 to 50 µg/mL (≈ 72.4 to 145 µM).
The corresponding values for `CCOC(=O)NC(=O)c1ccsc1NC(=O)c1ccc2nccn2c1` [Compound 73] are 1 to 3 µg/mL (≈ 2.79 to 8.37 µM), over 25 µg/mL and over 50 µg/mL.
The corresponding values for `CCOC(=O)NC(=O)c1ccsc1NC(=O)c1cnc(OC)cn1` [Compound 127] are over 3 µg/mL, over 25 µg/mL and over 50 µg/mL.
On to `CCOC(=O)NC(=O)c1ccsc1NC(=O)c1nsc2ccccc12` [Compound 378], for which the MIC in the series with Mtb [1] was over 3 µg/mL; with Mtb [2], over 25 µg/mL. The same compound came in with a CC50 in “in vitro” of 25 to 50 µg/mL (≈ 66.6 to 133 µM).
The corresponding values for `CC(C)OC(=O)NC(=O)c1ccsc1NC(=O)c1c(F)c(F)c(F)c(F)c1F` [Compound 296] are over 3 µg/mL, 5 to 25 µg/mL (≈ 11.8 to 59.2 µM) and under 25 µg/mL.
The corresponding values for `CCOC(=O)NC(=O)c1cc(F)sc1NC(=O)c1cnc2ccnn2c1` [Compound 341] are under 1 µg/mL, over 25 µg/mL and 25 to 50 µg/mL (≈ 66.3 to 133 µM).
Consider `CCOC(=O)NC(=O)c1ccsc1NC(=O)c1ccnc(NC(=O)N2CCN(C)CC2)c1.Cl.Cl` [Compound 49], for which the MIC was 1 to 3 µg/mL with Mtb [1] and over 25 µg/mL with Mtb [2]. In addition, in “in vitro”, the CC50 is over 50 µg/mL.
The corresponding values for `O=C(NC(=O)c1ccsc1NC(=O)c1ccnc(NC(=O)N2CCOCC2)c1)OCCF` [Compound 48] are under 1 µg/mL, over 25 µg/mL and over 50 µg/mL.
For `O=C(Nc1sccc1C(=O)NC1CCNCC1)c1nc2ccccc2s1` [Compound 259] the same measures were over 3 µg/mL, over 25 µg/mL and over 50 µg/mL.
For `CCOC(=O)NC(=O)c1ccsc1NC(=O)c1nc2c(s1)CCCC2` [Compound 217] the same measures were under 1 µg/mL, over 25 µg/mL and over 50 µg/mL.
Turning to `CC(C)OC(=O)NC(=O)c1ccsc1NC(=O)c1nc2ncccc2s1` [Compound 390], the MIC in the series with Mtb [1] is under 1 µg/mL; in the series on Mtb [2], over 25 µg/mL. In “in vitro”, the CC50 was under 25 µg/mL.
For the compound `CCOC(=O)NC(=O)c1ccsc1NC(=O)C1COc2ccc(OC)cc2C1` (stereo not drawn) [Compound 71], the MIC with Mtb [1] is 1 to 3 µg/mL (≈ 2.47 to 7.42 µM); with Mtb [2] it was under 5 µg/mL. Moreover, the CC50 in the series “in vitro” is over 50 µg/mL.
